Our source for the inhibition values is ChEMBL document CHEMBL4425175, “Synthesis and preliminary in vitro kinase inhibition evaluation of new diversely substituted pyrido[3,4-g]quinazoline derivatives” (Bioorg Med Chem Lett, 2016).

The species entered for one experiment is Sus scrofa. The experiment can be described thus: Inhibition of porcine brain CK1delta/epsilon using RRKHAAIGpSAYSITA as substrate at 10 uM after 30 mins in presence of [gamma33P] ATP by scintillation counting.
Experiment [1] concerns the target Dual specificity protein kinase CLK1 (Homo sapiens) (UniProt P49759). The experiment in a line: Inhibition of GST-fused human recombinant CLK1 expressed in Escherichia coli using GRSRSRSRSRSR peptide as substrate at 10 uM.
Experiment [2] has as its target Glycogen synthase kinase-3 (Sus scrofa) (UniProt B2LUN4+I6LNT8). The experiment can be described thus: Inhibition of porcine brain GSKalpha/beta using GS-1 as substrate at 10 uM after 30 mins in presence of [gamma33P] ATP by scintillation counting.
In experiment [3] the target is Cyclin-dependent kinase 5/CDK5 activator 1 (Homo sapiens) (UniProt Q00535+Q15078). The experiment in a line: Inhibition of human recombinant CDK5/p25 using histone1 as substrate at 10 uM after 30 mins in presence of [gamma33P] ATP by scintillation counting. It is filed as protein-complex assay.
Sequence of Cyclin-dependent kinase 5/CDK5 activator 1 (Homo sapiens) (Q00535 whole entry, the tested form may be a part): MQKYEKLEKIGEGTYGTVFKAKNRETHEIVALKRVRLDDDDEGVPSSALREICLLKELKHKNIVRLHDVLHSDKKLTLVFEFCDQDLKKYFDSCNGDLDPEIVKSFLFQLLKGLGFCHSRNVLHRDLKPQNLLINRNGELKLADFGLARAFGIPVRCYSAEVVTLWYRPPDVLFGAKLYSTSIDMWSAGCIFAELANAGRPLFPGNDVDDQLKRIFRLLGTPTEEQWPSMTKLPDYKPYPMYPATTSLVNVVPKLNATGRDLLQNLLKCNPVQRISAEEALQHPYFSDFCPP
Sequence of Cyclin-dependent kinase 5/CDK5 activator 1 (Homo sapiens) (Q15078 99-307 partner limits assumed): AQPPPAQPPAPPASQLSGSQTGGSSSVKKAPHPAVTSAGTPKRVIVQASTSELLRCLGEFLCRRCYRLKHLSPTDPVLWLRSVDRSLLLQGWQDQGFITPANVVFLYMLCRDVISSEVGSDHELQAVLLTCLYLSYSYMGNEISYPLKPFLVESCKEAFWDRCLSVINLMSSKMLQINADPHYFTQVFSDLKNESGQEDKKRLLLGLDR
Experiment [4] concerns the target Dual specificity tyrosine-phosphorylation-regulated kinase 1A (Rattus norvegicus) (UniProt Q63470). The experiment in a line: Inhibition of GST-fused rat recombinant DYRK1A expressed in Escherichia coli using myelin basic protein as substrate at 10 uM after 30 mins in presence of [gamma33P] ATP by scintillation counting.

Sequence of Dual specificity protein kinase CLK1 (Homo sapiens) (P49759 whole entry, looked up, the tested form may be a part): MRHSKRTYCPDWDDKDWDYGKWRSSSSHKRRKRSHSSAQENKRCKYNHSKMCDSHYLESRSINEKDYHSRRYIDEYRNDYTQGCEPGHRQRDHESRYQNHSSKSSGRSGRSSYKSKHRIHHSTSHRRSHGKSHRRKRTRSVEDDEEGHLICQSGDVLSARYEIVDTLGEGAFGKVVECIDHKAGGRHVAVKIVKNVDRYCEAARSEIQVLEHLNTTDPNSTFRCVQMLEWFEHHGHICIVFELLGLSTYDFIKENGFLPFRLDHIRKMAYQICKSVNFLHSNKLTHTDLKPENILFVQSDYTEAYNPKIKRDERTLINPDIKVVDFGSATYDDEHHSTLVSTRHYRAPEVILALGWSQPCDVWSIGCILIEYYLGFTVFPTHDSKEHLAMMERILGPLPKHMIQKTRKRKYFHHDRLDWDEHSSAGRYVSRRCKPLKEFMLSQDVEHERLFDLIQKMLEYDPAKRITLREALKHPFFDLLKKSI

In the case of `CCc1c2cnccc2c([N+](=O)[O-])c2nc(N)ncc12`, the inhibition (commonly how much of the control response was suppressed) stood at 87% in the experiment filed under Sus scrofa; 31% in experiment [1]; 98% in experiment [2]; 96% in experiment [3]; 80% in experiment [4].
For `Nc1ncc2c(-c3ccccc3)c3cnccc3c([N+](=O)[O-])c2n1`, the inhibition in the experiment listed under Sus scrofa came to 49%; in experiment [1], 30%; in experiment [2], 74%; in experiment [3] it was 25%; in experiment [4] it was 53%.
As for `Nc1ncc2c(Cc3ccccc3)c3cnccc3c(N)c2n1`, the inhibition amounted to 76% in the experiment filed under Sus scrofa; 29% in experiment [1]; 12% in experiment [2]; 4% in experiment [3]; 49% in experiment [4].
In the case of `CCCCc1c2cnccc2c([N+](=O)[O-])c2nc(N)ncc12`, the inhibition in the experiment filed under Sus scrofa was found to be 57%; in experiment [1] it was 31%; in experiment [2], 100%; in experiment [3], 91%; in experiment [4], 86%.
With `Nc1ncc2c(Cc3ccccc3)c3cnccc3c([N+](=O)[O-])c2n1`, the inhibition is 64% in the experiment filed under Sus scrofa; 37% in experiment [1]; 14% in experiment [2]; 2% in experiment [3]; 40% in experiment [4].
`Nc1ncc2cc3cnccc3c([N+](=O)[O-])c2n1`: the inhibition in the experiment filed under Sus scrofa amounted to 91%; in experiment [1] it was 98%; in experiment [2] it was 75%; in experiment [3], 44%; in experiment [4] it was 95%.
In the case of `Cc1c2cnccc2c(N)c2nc(N)ncc12`, the inhibition in the experiment filed under Sus scrofa is 70%; in experiment [1], 30%; in experiment [2], 43%; in experiment [3], 54%; in experiment [4] it was 90%.
As to `Cc1c2cnccc2c([N+](=O)[O-])c2nc(N)ncc12`, the inhibition in the experiment listed under Sus scrofa came out at 83%; in experiment [1], 30%; in experiment [2] it was 78%; in experiment [3], 88%; in experiment [4] it was 82%.
Take `Nc1ncc2c(-c3ccccc3)c3cnccc3c(N)c2n1`: the inhibition is 55% in the experiment listed under Sus scrofa; 32% in experiment [1]; 25% in experiment [2]; 33% in experiment [3]; 49% in experiment [4].
With `CCc1c2cnccc2c(N)c2nc(N)ncc12`, the inhibition in the experiment filed under Sus scrofa was 84%; in experiment [1] it was 31%; in experiment [2], 79%; in experiment [3] it was 61%; in experiment [4], 65%.
Consider `Nc1ncc2c(Br)c3cnccc3c([N+](=O)[O-])c2n1`, for which the inhibition in the experiment filed under Sus scrofa turned out to be 34%; in experiment [1], 28%; in experiment [2], 41%; in experiment [3], 0%; in experiment [4], 76%.
`Nc1ncc2cc3cnccc3c(N)c2n1`: the inhibition in the experiment filed under Sus scrofa is 76%; in experiment [1], 100%; in experiment [2], 54%; in experiment [3], 70%; in experiment [4], 99%.
Taken in the same sequence, the figures for `CCCCc1c2cnccc2c(N)c2nc(N)ncc12` were 42%, 31%, 34%, 0% and 52%.
